Measured values: paper PMC10125330 (ACS Bio & Med Chem Au, 2022)
Where a SMILES comes first, the peptide text is derived from it.

Legend:
[1] = molecular target: T1, EV71-2A^pro (Human enterovirus 71, UniProt Q66478); assay: Kinetic activity assay; format: biochemical; settings: from Km values, relative to native substrate (Km 21.3 μM)
T1 sequence (Q66478 863-1012 limits assumed): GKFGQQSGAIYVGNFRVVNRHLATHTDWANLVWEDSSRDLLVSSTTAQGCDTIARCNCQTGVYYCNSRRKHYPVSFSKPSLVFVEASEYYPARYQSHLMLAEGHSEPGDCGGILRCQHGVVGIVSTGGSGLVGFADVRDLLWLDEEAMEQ

[2] = molecular target: T1, EV71-2A^pro; assay: EV71-2Apro inhibition assay; format: biochemical

Compound	higher affinity for EV71-2A^pro than the native substrate [1] [fold]	IC50 [2] [µM]
Dabcyl-RDKIGFRGKFGQDE-Edans-NH2 [Pseudosubstrate II]	3	
CC[C@H](C)[C@H](NC(=O)[C@H](CCCCN)NC(=O)[C@H](CC(=O)O)NC(=O)[C@@H](N)CCCNC(=N)N)C(=O)NCC(=O)N[C@@H](Cc1ccccc1)C(=O)N[C@@H](CCCNC(=N)N)C(=O)NCC(=O)N[C@@H](CCCCN)C(=O)N[C@@H](Cc1ccccc1)C(=O)NCC(=O)N[C@@H](CCC(N)=O)C(=O)O [Peptide II] (H-RDKIGFRGKFGQ-OH)		12.1 ± 1.2
